In data set [1] the test system is human epithelial HeLa cells. Kind of data set: HeLa cytotoxicity assay (CellTiter-Glo). To be noted: pCC50. Type of data set: cell-based. As for the experimental part:
(§1) Compounds of the present invention were tested via high-throughput cellular assays utilizing detection of kynurenine via mass spectrometry and cytotoxicity as end-points. For the mass spectrometry and cytotoxicity assays, human epithelial HeLa cells (CCL-2; ATCC®, Manassas, Va.) were stimulated with human interferon-γ (IFN-γ) (Sigma-Aldrich Corporation, St. Louis, Mo.) to induce the expression of indoleamine 2, 3-dioxygenase (IDO1). Compounds with IDO1 inhibitory properties decreased the amount of kynurenine produced by the cells via the tryptophan catabolic pathway. Cellular toxicity due to the effect of compound treatment was measured using CellTiter-Glo® reagent (CTG) (Promega Corporation, Madison, Wis.), which is based on luminescent detection of ATP, an indicator of metabolically active cells.
(§2) In preparation for the assays, test compounds were serially diluted 3-fold in DMSO from a typical top concentration of 1 mM or 5 mM and plated at 0.5 μL in 384-well, polystyrene, clear bottom, tissue culture treated plates with lids (Greiner Bio-One, Kremsmünster, Austria) to generate 11-point dose response curves. Low control wells (0% kynurenine or 100% cytotoxicity) contained either 0.5 μL of DMSO in the presence of unstimulated (−IFN-γ) HeLa cells for the mass spectrometry assay or 0.5 μL of DMSO in the absence of cells for the cytotoxicity assay, and high control wells (100% kynurenine or 0% cytotoxicity) contained 0.5 μL of DMSO in the presence of stimulated (+IFN-γ) HeLa cells for both the mass spectrometry and cytotoxicity assays.
(§3) Frozen stocks of HeLa cells were washed and recovered in DMEM high glucose medium with HEPES (Thermo Fisher Scientific, Inc., Waltham, Mass.) supplemented with 10% v/v certified fetal bovine serum (FBS) (Thermo Fisher Scientific, Inc., Waltham, Mass.), and 1× penicillin-streptomycin antibiotic solution (Thermo Fisher Scientific, Inc., Waltham, Mass.). The cells were diluted to 100,000 cells/mL in the supplemented DMEM medium. 50 μL of either the cell suspension, for the mass spectrometry assay, or medium alone, for the cytotoxicity assay, were added to the low control wells, on the previously prepared 384-well compound plates, resulting in 5,000 cells/well or 0 cells/well respectively. IFN-γ was added to the remaining cell suspension at a final concentration of 10 nM, and 50 μL of the stimulated cells were added to all remaining wells on the 384-well compound plates. The plates, with lids, were then placed in a 37° C., 5% CO2 humidified incubator for 2 days.
(§4) Following incubation, the 384-well plates were removed from the incubator and allowed to equilibrate to room temperature for 30 minutes. For the cytotoxicity assay, CellTiter-Glo® was prepared according to the manufacturer's instructions, and 10 μL were added to each plate well. After a twenty minute incubation at room temperature, luminescence was read on an EnVision® Multilabel Reader (PerkinElmer Inc., Waltham, Mass.). For the mass spectrometry assay, 10 μL of supernatant from each well of the compound-treated plates were added to 40 μL of acetonitrile, containing 10 μM of an internal standard for normalization, in 384-well, polypropylene, V-bottom plates (Greiner Bio-One, Kremsmünster, Austria) to extract the organic analytes. Following centrifugation at 2000 rpm for 10 minutes, 10 μL from each well of the acetonitrile extraction plates were added to 90 μL of sterile, distilled H2O in 384-well, polypropylene, V-bottom plates for analysis of kynurenine and the internal standard on the RapidFire 300 (Agilent Technologies, Santa Clara, Calif.) and 4000 QTRAP MS (SCIEX, Framingham, Mass.). MS data were integrated using Agilent Technologies' RapidFire Integrator software, and data were normalized for analysis as a ratio of kynurenine to the internal standard. […]

In data set [2] the target is indoleamine 2, 3-dioxygenase (IDO1) (Homo sapiens, UniProt P14902). The experiment in a line: IDO1 HeLa RapidFire MS assay (kynurenine detection by mass spectrometry). Type of data set: cell-based. Also noted: to induce the expression of indoleamine 2, 3-dioxygenase (IDO1). The note with it: HeLa cells, pIC50, read-out: IDO1_HELA_PXC50 (converted). As for the experimental part:
IDO1 HeLa RapidFire MS Assay
as §1, §2, §3, §4

This is an account of results in US10899754B2, “Modulators of indoleamine 2,3-dioxygenase” (GLAXOSMITHKLINE INTELLECTUAL PROPERTY DEVELOPMENT LIMITED, priority 2016, dated 2021).

Where only a bound is given, the exact number is not on record here.

Sequence of indoleamine 2, 3-dioxygenase (IDO1) (P14902 whole entry): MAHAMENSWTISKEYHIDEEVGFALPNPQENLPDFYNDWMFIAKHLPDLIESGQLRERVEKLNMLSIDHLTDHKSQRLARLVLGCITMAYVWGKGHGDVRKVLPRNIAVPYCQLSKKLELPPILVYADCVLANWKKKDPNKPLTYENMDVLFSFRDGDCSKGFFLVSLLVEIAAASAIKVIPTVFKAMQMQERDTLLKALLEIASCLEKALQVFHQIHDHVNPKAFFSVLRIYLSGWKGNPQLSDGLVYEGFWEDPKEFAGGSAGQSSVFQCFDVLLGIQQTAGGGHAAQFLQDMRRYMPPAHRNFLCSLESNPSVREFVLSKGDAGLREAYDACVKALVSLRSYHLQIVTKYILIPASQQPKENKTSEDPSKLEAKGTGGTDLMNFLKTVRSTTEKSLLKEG

On to `CC(C)CN(c1ccc(-c2cccnc2C(=O)O)cc1Nc1nc2ccccc2[nH]1)C1CCCCC1` [example 278, 3-{3-[(1H-1,3-benzodiazol-2-yl)amino]-4-[cyclohexyl(2-methylpropyl)amino]phenyl}pyridine-2-carboxylic acid], for which the HELA_IDO1_TOX_PXC50 in data set [1] is listed as <5. Moreover, the IC50 in data set [2] is 50.1 nM.
For `CC(C)CN(CC(C)C)c1ccc(C(C)CC(=O)O)cc1Nc1nnc(CC(N)=O)s1` (stereo not drawn) [example 195, 3-{4-[bis(2-methylpropyl)amino]-3-{[5-(carbamoylmethyl)-1,3,4-thiadiazol-2-yl]amino}phenyl}butanoic acid], in that order: <5 and 3160 nM.
With `CC(C)CN(c1ccc(-c2c[nH]nc2C(=O)O)cc1Nc1nc2ccccc2o1)C1CCCCC1` [example 175, 4-{3-[(1,3-benzoxazol-2-yl)amino]-4-[cyclohexyl(2-methylpropyl)amino]phenyl}-1H-pyrazole-3-carboxylic acid], the HELA_IDO1_TOX_PXC50 in data set [1] was <5. For the same molecule, the IC50 in data set [2] is 5010 nM.
The matching figures for `CC(C)CN(c1ccc([C@H](C)CC(=O)O)cc1NC(C)CCO)C1CCCCC1` (stereo partly drawn) [example 185, (3R)-3-{4-[cyclohexyl(2-methylpropyl)amino]-3-[(4-hydroxybutan-2-yl)amino]phenyl}butanoic acid]: <5 and 1580 nM.
For `CC(C)CN(c1ccc(C(C)CC(=O)O)cc1NC1CCNC1)C1CCCCC1` (stereo not drawn) [example 136, 3-{4-[cyclohexyl(2-methylpropyl)amino]-3-[(pyrrolidin-3-yl)amino]phenyl}butanoic acid], in that order: 5.1 and 3160 nM.
The matching figures for `CC(C)CN(c1ccc(-c2ncccc2C(=O)O)cc1Nc1nc2ccccc2o1)C1CCCCC1` [example 292, 2-{3-[(1,3-benzoxazol-2-yl)amino]-4-[cyclohexyl(2-methylpropyl)amino]phenyl}pyridine-3-carboxylic acid]: <5 and 794 nM.
As for `CC(C)CN(CC(C)C)c1ccc(C(C)CC(=O)O)cc1NC1CCC(C(=O)O)CC1` (stereo not drawn) [example 198, 4-({2-[bis(2-methylpropyl)amino]-5-(1-carboxypropan-2-yl)phenyl}amino)cyclo-hexane-1-carboxylic acid], the HELA_IDO1_TOX_PXC50 in data set [1] is given as <5. Also, the IC50 in data set [2] is > 10000 nM.
For `CC(C)CN(CC(C)C)c1ccc(C(C)CC(=O)O)cc1Nc1c(Nc2ccccc2)c(=O)c1=O` (stereo not drawn) [example 124, 3-{4-[bis(2-methylpropyl)amino]-3-{(3,4-dioxo-2-(phenylamino)cyclobut-1-en-1-yl]amino}phenyl}butanoic acid], in that order: <4.3 and 12600 nM.
With `Cc1nnc(Nc2cc(C(C)CC(=O)O)ccc2N(CC(C)C)CC(C)C)o1.O=C(O)C(F)(F)F` (stereo not drawn) [example 125, 3-{4-[bis(2-methylpropyl)amino]-3-[(5-methyl-1,3,4-oxadiazol-2-yl)amino]phenyl}butanoic acid], in data set [1], the HELA_IDO1_TOX_PXC50 is <4.3. For the same molecule, in data set [2], the IC50 was 1260 nM.
The matching figures for `CC(C)CN(CC(C)C)c1ccc(C(C)CC(=O)O)cc1Nc1nc(-c2ccccc2)cs1` (stereo not drawn) [example 128, 3-{4-[bis(2-methylpropyl)amino]-3-[(4-phenyl-1,3-thiazol-2-yl)amino]phenyl}butanoic acid]: 4.4 and 2510 nM.
With `CC(C)CN(CC(C)C)c1ccc(C(C)CC(=O)O)cc1Nc1ccc(NS(C)(=O)=O)cn1` (stereo not drawn) [example 200, 3-{4-[bis(2-methylpropyl)amino]-3-[(5-methanesulfonamido-pyridin-2-yl)amino]phenyl}butanoic acid], in data set [1], the HELA_IDO1_TOX_PXC50 is <5. Moreover, the IC50 in data set [2] is > 10000 nM.
The matching figures for `COCc1ncc(Nc2cc(C(C)CC(=O)O)ccc2N(CC(C)C)CC(C)C)s1` (stereo not drawn) [example 189, 3-{4-[bis(2-methylpropyl)amino]-3-{[2-(methoxymethyl)-1,3-thiazol-5-yl]amino}phenyl}butanoic acid]: <5 and 200 nM.
For `CC(C)CN(c1ccc(C(C)CC(=O)O)cc1NC1=N[C@H](c2ccccc2)CS1)C1CCCCC1` (stereo partly drawn) [example 148, 3-{4-[cyclohexyl(2-methypropyl)amino]-3-{[(4R)-4-phenyl-4,5-dihydro-1,3-thiazol-2-yl]amino}phenyl}butanoic acid], in that order: <5 and 631 nM.
For `CC(C)CN(c1ccc(C(C)CC(=O)O)cc1NC1COC1)C1CCCCC1` (stereo not drawn) [example 129, 3-{4-[cyclohexyl(2-methylpropyl)amino]-3-[(oxetan-3-yl)amino]phenyl}butanoic acid], in that order: <4.3 and 1580 nM.
On to `CC(C)CN(c1ccc(-c2ccccc2C(=O)O)cc1Nc1nc(C(F)(F)F)ns1)C1CCN(CCO)CC1` [example 271, 4′-{[1-(2-hydroxyethyl)piperidin-4-yl](2-methylpropyl)amino}-3′-{[3-(trifluoromethyl)-1,2,4-thiadiazol-5-yl]amino}-[1,1′-biphenyl]-2-carboxylic acid], for which the HELA_IDO1_TOX_PXC50 in data set [1] was <5. Also, in data set [2], the IC50 is 6310 nM.
As for `CC(C)CN(c1ccc(-c2ccccc2C(=O)O)cc1Nc1nc(C(F)(F)F)ns1)C1CCN(C)CC1` [example 274, 4′-[(1-methylpiperidin-4-yl)(2-methylpropyl)amino]-3′-{[3-(trifluoromethyl)-1,2,4-thiadiazol-5-yl]amino}-[1,1′-biphenyl]-2-carboxylic acid], the HELA_IDO1_TOX_PXC50 in data set [1] is listed as <5. The IC50 in data set [2] is 1000 nM.
For `CC(C)CN(CC(C)C)c1ccc(-c2ccccc2C(=O)O)cc1Nc1nc2ccccc2o1` [example 293, 3′-[(1,3-benzoxazol-2-yl)amino]-4′-[bis(2-methylpropyl)amino]-[1,1′-biphenyl]-2-carboxylic acid], in that order: <5 and 631 nM.
For `CC(C)CN(c1ccc(-c2ccccc2C(=O)O)cc1Nc1nc(C(F)(F)F)ns1)C1CCNCC1` [example 272, 4′-[(2-methylpropyl)(piperidin-4-yl)amino]-3′-{[3-(trifluoromethyl)-1,2,4-thiadiazol-5-yl]amino}-[1,1′-biphenyl]-2-carboxylic acid], in that order: <5 and 5010 nM.
The matching figures for `COc1nsc(Nc2cc(C(C)CC(=O)O)ccc2N(CC(C)C)CC(C)C)n1` (stereo not drawn) [example 132, 3-{4-[bis(2-methylpropyl)amino]-3-[(3-methoxy-1,2,4-thiadiazol-5-yl)amino]phenyl}butanoic acid]: <4.3 and 15800 nM.
With `CC(=O)N1CCC(Nc2cc(C(C)CC(=O)O)ccc2N(CC(C)C)C2CCCCC2)C1` (stereo not drawn) [example 135, 3-{3-[(1-acetylpyrrolidin-3-yl)amino]-4-[cyclohexyl(2-methylpropyl)amino]phenyl}butanoic acid], the HELA_IDO1_TOX_PXC50 in data set [1] is listed as <5. The IC50 in data set [2] is 3980 nM.
For `CC(C)CN(c1ccc(-c2ccccc2C(=O)O)cc1Nc1nc2ccccc2[nH]1)C1CCOCC1` [example 296, 3′-[(1H-1,3-benzodiazol-2-yl)amino]-4′-[(2-methylpropyl)(oxan-4-yl)amino]-[1,1′-biphenyl]-2-carboxylic acid], in that order: <5 and 631 nM.
